Measured values reported in patent US20230340011A1 (Asteroid Therapeutics, priority 2022, published 2023).

molecular target: SREBP-2 (Homo sapiens (Human), UniProt Q12772); test: In vitro assay SREBP-2: PathHunter U2OS SREBP-2 Nuclear Translocation Cell Line, U18666A-stimulated; format: cell-based; settings: PathHunter U2OS SREBP-2 nuclear translocation cells, U18666A 10 μM, overnight (16 hours)

`C[C@H](OC(=O)N(C)C)[C@H]1CC[C@H]2[C@@H]3CC=C4C[C@@H](O)CC[C@]4(C)[C@H]3CC[C@]12C` [Example 242, (1S)-1-[(1S,3aS,3bS,7S,9aR,9bS,11aS)-7-hydroxy-9a,11a-dimethyl-1H,2H,3H,3aH,3bH,4H,6H,7H,8H,9H,9aH,9bH,10H,11H,11aH-cyclopenta[a]phenanthren-1-yl]ethyl N,N-dimethylcarbamate] and `COC(=O)NC[C@@H](C)[C@H]1CC[C@H]2[C@@H]3CC=C4C[C@@H](O)CC[C@]4(C)[C@H]3CC[C@]12C` [Example 240, Methyl ((S)-2-((3S,8S,9S,10R,13S,14S,17R)-3-hydroxy-10,13-dimethyl-2,3,4,7,8,9,10,11,12,13,14,15,16,17-tetradecahydro-1H-cyclopenta[a]phenanthren-17-yl)propyl)carbamate] fall in the same range of IC50: 250 to 1000 nM for the first, 250 to 1000 nM for the second.

`CNC(=O)c1ccc(OC[C@@H](C)[C@H]2CC[C@H]3[C@@H]4CC=C5C[C@@H](O)CC[C@]5(C)[C@H]4CC[C@]23C)nc1` [Example 449, 6-((S)-2-((3S,8S,9S,10R,13S,14S,17R)-3-hydroxy-10,13-dimethyl-2,3,4,7,8,9,10,11,12,13,14,15,16,17-tetradecahydro-1H-cyclopenta[a]phenanthren-17-yl)propoxy)-N-methylnicotinamide] and `CNC(=O)c1ccnc(OC[C@@H](C)[C@H]2CC[C@H]3[C@@H]4CC=C5C[C@@H](O)CC[C@]5(C)[C@H]4CC[C@]23C)c1` [Example 254, 2-((S)-2-((3S,8S,9S,10R,13S,14S,17R)-3-hydroxy-10,13-dimethyl-2,3,4,7,8,9,10,11,12,13,14,15,16,17-tetradecahydro-1H-cyclopenta[a]phenanthren-17-yl)propoxy)-N-methylisonicotinamide] cannot be ordered by IC50: < 250 nM for the first, < 250 nM for the second.

First: C[C@H](CCC(=O)N1CCN(C2CC2)CC1)[C@H]1CC[C@H]2[C@@H]3CC=C4C[C@@H](O)CC[C@]4(C)[C@H]3CC[C@]12C [Example 558, (4R)-4-[(1R,3aS,3bS,7S,9aR,9bS,11aR)-7-hydroxy-9a,11a-dimethyl-1H,2H,3H,3aH,3bH,4H,6H,7H,8H,9H,9aH,9bH,10H,11H,11aH-cyclopenta[a]phenanthren-1-yl]-1-(4-cyclopropylpiperazin-1-yl)pentan-1-one]
Second: C[C@H](CCC(=O)N1CCC(N(C)S(C)(=O)=O)CC1)[C@H]1CC[C@H]2[C@@H]3CC=C4C[C@@H](O)CC[C@]4(C)[C@H]3CC[C@]12C [Example 415, N-{1-[(4R)-4-[(1R,3aS,3bS,7S,9aR,9bS,11aR)-7-hydroxy-9a,11a-dimethyl-1H,2H,3H,3aH,3bH,4H,6H,7H,8H,9H,9aH,9bH,10H,11H,11aH-cyclopenta[a]phenanthren-1-yl]pentanoyl]piperidin-4-yl}-N-methylmethanesulfonamide]
The IC50 of the first is lower: < 250 nM for the first, 250 to 1000 nM for the second.

`CCN(CCc1ccccn1)C(=O)CC[C@@H](C)[C@H]1CC[C@H]2[C@@H]3CC=C4C[C@@H](O)CC[C@]4(C)[C@H]3CC[C@]12C` [Example 541, (4R)-4-[(1R,3aS,3bS,7S,9aR,9bS,11aR)-7-hydroxy-9a,11a-dimethyl-1H,2H,3H,3aH,3bH,4H,6H,7H,8H,9H,9aH,9bH,10H,11H,11aH-cyclopenta[a]phenanthren-1-yl]-N-ethyl-N-[2-(pyridin-2-yl)ethyl]pentanamide] and `C[C@H](CCC(=O)N(C)CCc1ccncc1)[C@H]1CC[C@H]2[C@@H]3CC=C4C[C@@H](O)CC[C@]4(C)[C@H]3CC[C@]12C` [Example 544, (R)-4-((3S,8S,9S,10R,13R,14S,17R)-3-hydroxy-10,13-dimethyl-2,3,4,7,8,9,10,11,12,13,14,15,16,17-tetradecahydro-1H-cyclopenta[a]phenanthren-17-yl)-N-methyl-N-(2-(pyridin-4-yl)ethyl)pentanamide] cannot be ordered by IC50: < 250 nM for the first, < 250 nM for the second.

`C[C@H](CCC(=O)N1CC[C@@H](Oc2ccncc2)C[C@@H]1C)[C@H]1CC[C@H]2[C@@H]3CC=C4C[C@@H](O)CC[C@]4(C)[C@H]3CC[C@]12C` [Example 586, (R)-4-((3S,8S,9S,10R,13R,14S,17R)-3-hydroxy-10,13-dimethyl-2,3,4,7,8,9,10,11,12,13,14,15,16,17-tetradecahydro-1H-cyclopenta[a]phenanthren-17-yl)-1-((2S,4R)-2-methyl-4-(pyridin-4-yloxy)piperidin-1-yl)pentan-1-one] and `C[C@H](CCC(=O)N1CCC[C@@H](Oc2cnn(C)c2)C1)[C@H]1CC[C@H]2[C@@H]3CC=C4C[C@@H](O)CC[C@]4(C)[C@H]3CC[C@]12C` [Example 518, (4R)-4-[(1R,3aS,3bS,7S,9aR,9bS,11aR)-7-hydroxy-9a,11a-dimethyl-1H,2H,3H,3aH,3bH,4H,6H,7H,8H,9H,9aH,9bH,10H,11H,11aH-cyclopenta[a]phenanthren-1-yl]-1-[(3R)-3-[(1-methyl-1H-pyrazol-4-yl)oxy]piperidin-1-yl]pentan-1-one] cannot be ordered by IC50: < 250 nM for the first, < 250 nM for the second.

`CNC(=O)c1ccnc(OC[C@@H](C)[C@H]2CC[C@H]3[C@@H]4CC=C5C[C@@H](O)CC[C@]5(C)[C@H]4CC[C@]23C)c1` [Example 450, 2-((S)-2-((3S,8S,9S,10R,13S,14S,17R)-3-hydroxy-10,13-dimethyl-2,3,4,7,8,9,10,11,12,13,14,15,16,17-tetradecahydro-1H-cyclopenta[a]phenanthren-17-yl)propoxy)-N-methylisonicotinamide] and `C[C@H](COc1cc(CO)ccn1)[C@H]1CC[C@H]2[C@@H]3CC=C4C[C@@H](O)CC[C@]4(C)[C@H]3CC[C@]12C` [Example 446, (3S,8S,9S,10R,13S,14S,17R)-17-((S)-1-((4-(hydroxymethyl)pyridin-2-yl)oxy)propan-2-yl)-10,13-dimethyl-2,3,4,7,8,9,10,11,12,13,14,15,16,17-tetradecahydro-1H-cyclopenta[a]phenanthren-3-ol] cannot be ordered by IC50: < 250 nM for the first, < 250 nM for the second.

`COC(=O)N1CCN(C(=O)O[C@@H](C)[C@H]2CC[C@H]3[C@@H]4CC=C5C[C@@H](O)CC[C@]5(C)[C@H]4CC[C@]23C)CC1` [Example 237, 1-(1S)-1-[(1S,3aS,3bS,7S,9aR,9bS,11aS)-7-hydroxy-9a,11a-dimethyl-1H,2H,3H,3aH,3bH,4H,6H,7H,8H,9H,9aH,9bH,10H,11H,11aH-cyclopenta[a]phenanthren-1-yl]ethyl 4-methyl piperazine-1,4-dicarboxylate] and `COC(=O)N1CCN(C(=O)NC[C@@H](C)[C@H]2CC[C@H]3[C@@H]4CC=C5C[C@@H](O)CC[C@]5(C)[C@H]4CC[C@]23C)CC1` [Example 467, Methyl 4-(((S)-2-((3S,8S,9S,10R,13S,14S,17R)-3-hydroxy-10,13-dimethyl-2,3,4,7,8,9,10,11,12,13,14,15,16,17-tetradecahydro-1H-cyclopenta[a]phenanthren-17-yl)propyl)carbamoyl)piperazine-1-carboxylate] cannot be ordered by IC50: < 250 nM for the first, < 250 nM for the second.

First: CCC1(O)CCN(C(=O)C[C@@H](C)[C@H]2CC[C@H]3[C@@H]4CC=C5C[C@@H](O)CC[C@]5(C)[C@H]4CC[C@]23C)CC1 [Example 592, (R)-1-(4-ethyl-4-hydroxypiperidin-1-yl)-3-((3S,8S,9S,10R,13R,14S,17R)-3-hydroxy-10,13-dimethyl-2,3,4,7,8,9,10,11,12,13,14,15,16,17-tetradecahydro-1H-cyclopenta[a]phenanthren-17-yl)butan-1-one]
Second: C[C@H](OCC(=O)N1CCC(C)(CO)CC1)[C@H]1CC[C@H]2[C@@H]3CC=C4C[C@@H](O)CC[C@]4(C)[C@H]3CC[C@]12C [Example 366, 2-((S)-1-((3S,8S,9S,10R,13S,14S,17S)-3-hydroxy-10,13-dimethyl-2,3,4,7,8,9,10,11,12,13,14,15,16,17-tetradecahydro-1H-cyclopenta[a]phenanthren-17-yl)ethoxy)-1-(4-(hydroxymethyl)-4-methylpiperidin-1-yl)ethan-1-one]
The IC50 of the first is lower: < 250 nM for the first, 250 to 1000 nM for the second.

First: CC(=O)N(C)C1CN(C(=O)CC[C@@H](C)[C@H]2CC[C@H]3[C@@H]4CC=C5C[C@@H](O)CC[C@]5(C)[C@H]4CC[C@]23C)C1 [Example 325, N-(1-((R)-4-((3S,8S,9S,10R,13R,14S,17R)-3-hydroxy-10,13-dimethyl-2,3,4,7,8,9,10,11,12,13,14,15,16,17-tetradecahydro-1H-cyclopenta[a]phenanthren-17-yl)pentanoyl)azetidin-3-yl)-N-methylacetamide]
Second: C[C@H](CCC(=O)N1CCC([C@H](O)C(F)(F)F)CC1)[C@H]1CC[C@H]2[C@@H]3CC=C4C[C@@H](O)CC[C@]4(C)[C@H]3CC[C@]12C [Example 468, (4R)-4-[(1R,3aS,3bS,7S,9aR,9bS,11aR)-7-hydroxy-9a,11a-dimethyl-1H,2H,3H,3aH,3bH,4H,6H,7H,8H,9H,9aH,9bH,10H,11H,11aH-cyclopenta[a]phenanthren-1-yl]-1-{4-[(1 S)-2,2,2-trifluoro-1-hydroxyethyl]piperidin-1-yl}pentan-1-one]
The IC50 of the first is higher: 250 to 1000 nM for the first, < 250 nM for the second. The second is the more potent here.

`C[C@H](Oc1cccnc1CO)[C@H]1CC[C@H]2[C@@H]3CC=C4C[C@@H](O)CC[C@]4(C)[C@H]3CC[C@]12C` [Example 270, (3S,8S,9S,10R,13S,14S,17S)-17-((S)-1-((2-(hydroxymethyl)pyridin-3-yl)oxy)ethyl)-10,13-dim ethyl-2,3,4,7,8,9,10,11,12,13,14,15,16,17-tetradecahydro-1H-cyclopenta[a]phenanthren-3-ol] and `C[C@H](COc1ccc(CO)cn1)[C@H]1CC[C@H]2[C@@H]3CC=C4C[C@@H](O)CC[C@]4(C)[C@H]3CC[C@]12C` [Example 259, (3S,8S,9S,10R,13S,14S,17R)-17-((S)-1-((5-(hydroxymethyl)pyridin-2-yl)oxy)propan-2-yl)-10,13-dimethyl-2,3,4,7,8,9,10,11,12,13,14,15,16,17-tetradecahydro-1H-cyclopenta[a]phenanthren-3-ol] fall in the same range of IC50: 250 to 1000 nM for the first, 250 to 1000 nM for the second.

In the case of `C[C@H](CCC(=O)N1CCC(CN2CCOC(C)(C)C2=O)CC1)[C@H]1CC[C@H]2[C@@H]3CC=C4C[C@@H](O)CC[C@]4(C)[C@H]3CC[C@]12C` [Example 522, 4-({1-[(4R)-4-[(1R,3aS,3bS,7S,9aR,9bS,11aR)-7-hydroxy-9a,11a-dimethyl-1H,2H,3H,3aH,3bH,4H,6H,7H,8H,9H,9aH,9bH,10H,11H,11aH-cyclopenta[a]phenanthren-1-yl]pentanoyl]piperidin-4-yl}methyl)-2,2-dimethylmorpholin-3-one], the IC50 is reported as < 250 nM.
